Source: ChEMBL document CHEMBL5634077, “Recent advances in 1,2,3- and 1,2,4-triazole hybrids as antimicrobials and their SAR: A critical review” (2023)
Values after ≈ are worked out from the molar mass of the structure shown. Values belong to the compound of their own block, whether it stands above or below them.

Experiments:
Staphylococcus aureus [1] = assay: Antibacterial activity against Staphylococcus aureus assessed as reduction in bacterial growth incubated for 24 hrs by broth microdilution method; format: functional
Staphylococcus aureus [2] = assay: Antibacterial activity against Staphylococcus aureus assessed as diameter of inhibition zone incubated for 24 hrs by […]; format: functional
Staphylococcus aureus [3] = assay: Antibacterial activity against Staphylococcus aureus ATCC 6538P; format: functional
Escherichia coli [4] = assay: Antibacterial activity against Escherichia coli ATCC 8739; format: functional
Pseudomonas aeruginosa [5] = assay: Antibacterial activity against Pseudomonas aeruginosa ATCC 9027; format: functional
Bacillus subtilis [6] = assay: Antibacterial activity against Bacillus subtilis ATCC 6633 assessed as reduction in microbial growth; format: functional
Salmonella typhimurium = assay: Antibacterial activity against Salmonella typhimurium SL1344 assessed as reduction in microbial growth; format: functional, Salmonella enterica subsp. enterica serovar Typhimurium; details: Salmonella enterica
Proteus vulgaris [7] = assay: Antibacterial activity against Proteus vulgaris ATCC 3851 assessed as reduction in microbial growth; format: functional
Staphylococcus aureus [8] = assay: Antibacterial activity against Staphylococcus aureus ATCC 6538p assessed as reduction in microbial growth; format: functional
Escherichia coli [9] = assay: Antibacterial activity against Escherichia coli ATCC 25922 assessed as reduction in microbial growth; format: functional
Pseudomonas aeruginosa [10] = assay: Antibacterial activity against Pseudomonas aeruginosa MTCC 1034 assessed as reduction in bacterial growth; format: functional
Micrococcus luteus [11] = assay: Antibacterial activity against Micrococcus luteus assessed as reduction in microbial growth; format: functional
Staphylococcus aureus [12] = assay: Antibacterial activity against Staphylococcus aureus ATCC 29213 assessed as reduction in bacterial growth by micro-broth dilution method; format: functional
Micrococcus luteus [13] = assay: Antibacterial activity against Micrococcus luteus IFC 12708 assessed as reduction in microbial growth; format: functional
Pseudomonas aeruginosa [14] = assay: Antibacterial activity against Pseudomonas aeruginosa MCCB 0035 assessed as reduction in bacterial growth by micro-broth dilution method; format: functional
Escherichia coli [15] = assay: Antibacterial activity against Escherichia coli ATCC 8739 assessed as reduction in bacterial growth by micro-broth dilution method; format: functional
Bacillus subtilis [16] = assay: Antibacterial activity against Bacillus subtilis assessed as reduction in bacterial growth; format: functional
Bacillus subtilis [17] = assay: Antibacterial activity against Bacillus subtilis MTCC 441 assessed as reduction in bacterial growth; format: functional
Proteus vulgaris [18] = assay: Antibacterial activity against Proteus vulgaris assessed as reduction in bacterial growth; format: functional
Candida albicans = assay: Antifungal activity against Candida albicans assessed as fungal growth inhibition; format: functional
Aspergillus niger = assay: Antifungal activity against Aspergillus niger assessed as fungal growth inhibition; format: functional
Pseudomonas aeruginosa [19] = assay: Antibacterial activity against Pseudomonas aeruginosa NCIM 2036 assessed as reduction in bacterial growth incubated for 18 to 24 hrs by broth microdilution method; format: functional; details: time 18-24 hrs
Bacillus subtilis [20] = assay: Antibacterial activity against Bacillus subtilis NCIM 2063 assessed as reduction in bacterial growth incubated for 18 to 24 hrs by broth microdilution method; format: functional; details: time 18-24 hrs
Proteus mirabilis = assay: Antibacterial activity against Proteus mirabilis NCIM 2241 assessed as reduction in bacterial growth incubated for 18 to 24 hrs by broth microdilution method; format: functional; details: time 18-24 hrs
Staphylococcus aureus [21] = assay: Antibacterial activity against Staphylococcus aureus NCIM 2079 assessed as reduction in bacterial growth incubated for 18 to 24 hrs by broth microdilution method; format: functional; details: time 18-24 hrs
Bacillus cereus = assay: Antibacterial activity against Bacillus cereus NCIM 2156 assessed as reduction in bacterial growth incubated for 18 to 24 hrs by broth microdilution method; format: functional; details: time 18-24 hrs
Escherichia coli [22] = assay: Antibacterial activity against Escherichia coli NCIM 2065 assessed as reduction in bacterial growth incubated for 18 to 24 hrs by broth microdilution method; format: functional; details: time 18-24 hrs
Proteus vulgaris [23] = assay: Antibacterial activity against Proteus vulgaris NCIM 2027 assessed as reduction in bacterial growth incubated for 18 to 24 hrs by broth microdilution method; format: functional; details: time 18-24 hrs
Bacillus subtilis [24] = assay: Antibacterial activity against Bacillus subtilis assessed as diameter of inhibition zone at 100 microg/ml incubated for 18 to 24 hrs by disc-diffusion method; format: functional; details: time 18-24 hrs, read-out: DIZ
Staphylococcus aureus [25] = assay: Antibacterial activity against Staphylococcus aureus assessed as diameter of inhibition zone at 100 microg/ml incubated for 18 to 24 hrs by disc-diffusion method; format: functional; details: time 18-24 hrs, read-out: DIZ
Escherichia coli [26] = assay: Antibacterial activity against Escherichia coli assessed as diameter of inhibition zone at 100 microg/ml incubated for 18 to 24 hrs by disc-diffusion method; format: functional; details: time 18-24 hrs, read-out: DIZ
Staphylococcus aureus [27] = assay: Antibacterial activity against Staphylococcus aureus assessed as reduction in microbial growth incubated for 18 to 24 hrs by serial dilution method; format: functional; details: time 18-24 hrs
[28] = test system: Staphylococcus epidermidis; assay: Antibacterial activity against Methicillin-sensitive Staphylococcus epidermidis assessed as bacterial growth inhibition; format: functional
Staphylococcus aureus [29] = assay: Antibacterial activity against methicillin-resistant Staphylococcus aureus assessed as reduction in microbial growth incubated for 18 to 24 hrs by serial dilution method; format: functional; details: time 18-24 hrs
Enterococcus faecalis = assay: Antibacterial activity against Enterococcus faecalis assessed as bacterial growth inhibition; format: functional
Staphylococcus aureus [30] = assay: Antibacterial activity against methicillin-sensitive Staphylococcus aureus assessed as reduction in microbial growth incubated for 18 to 24 hrs by serial dilution method; format: functional; details: time 18-24 hrs
Enterococcus faecium = assay: Antibacterial activity against Enterococcus faecium ATCC 700221; format: functional
[31] = test system: Staphylococcus epidermidis; assay: Antibacterial activity against Methicillin-resistant Staphylococcus epidermidis assessed as bacterial growth inhibition; format: functional
Escherichia coli [32] = assay: Antibacterial activity against Escherichia coli assessed as reduction in bacterial growth; format: functional
Pseudomonas aeruginosa [33] = assay: Antibacterial activity against Pseudomonas aeruginosa assessed as reduction in bacterial growth; format: functional

Structure (SMILES): CCn1cc(C(=O)O)c(=O)c2cc(F)c(N3CCNCC3)cc21 [NORFLOXACIN]
MIC (Staphylococcus aureus [3]): 0.125 µg/mL (≈ 0.391 µM)
MIC (Escherichia coli [4]): 0.125 µg/mL (≈ 0.391 µM)
MIC (Pseudomonas aeruginosa [5]): 0.125 µg/mL (≈ 0.391 µM)

Structure (SMILES): CC1(C)S[C@@H]2[C@H](NC(=O)[C@H](N)c3ccccc3)C(=O)N2[C@H]1C(=O)O [AMPICILLIN]
MIC (Bacillus subtilis [6]): 1.56 µg/mL
MIC (Salmonella typhimurium): 1.56 µg/mL
MIC (Proteus vulgaris [7]): 1.56 µg/mL
MIC (Staphylococcus aureus [8]): 1.56 µg/mL
MIC (Escherichia coli [9]): 1.56 µg/mL
MIC (Pseudomonas aeruginosa [10]): 0.5 µg/mL (≈ 1.43 µM)
MIC (Micrococcus luteus [11]): 1.56 µg/mL
MIC (Staphylococcus aureus [12]): 2 µg/mL (≈ 5.72 µM)
MIC (Micrococcus luteus [13]): 1.56 µg/mL
MIC (Pseudomonas aeruginosa [14]): 4 µg/mL (≈ 11.4 µM)
MIC (Escherichia coli [15]): 1 µg/mL (≈ 2.86 µM)
MIC (Bacillus subtilis [16]): 1.56 µg/mL (≈ 4.46 µM)
MIC (Bacillus subtilis [17]): 0.5 µg/mL (≈ 1.43 µM)
MIC (Proteus vulgaris [18]): 1.56 µg/mL (≈ 4.46 µM)

Structure (SMILES): Sc1nncn1/N=C/c1cccc(Oc2ccccc2)c1
zone of inhibition at 100 µg/mL (Bacillus subtilis [24]): 15 mm
zone of inhibition at 100 µg/mL (Staphylococcus aureus [25]): 15 mm
zone of inhibition at 100 µg/mL (Escherichia coli [26]): 15 mm

Structure (SMILES): CN[C@H](CC(C)C)C(=O)N[C@H]1C(=O)N[C@@H](CC(N)=O)C(=O)N[C@H]2C(=O)N[C@H]3C(=O)N[C@H](C(=O)N[C@H](C(=O)O)c4cc(O)cc(O)c4-c4cc3ccc4O)[C@H](O)c3ccc(c(Cl)c3)Oc3cc2cc(c3O[C@@H]2O[C@H](CO)[C@@H](O)[C@H](O)[C@H]2O[C@H]2C[C@](C)(N)[C@H](O)[C@H](C)O2)Oc2ccc(cc2Cl)[C@H]1O [VANCOMYCIN]
MIC (Staphylococcus aureus [27]): 0.25 µg/mL
MIC [28]: 0.5 µg/mL (≈ 0.345 µM)
MIC (Staphylococcus aureus [29]): 0.25 µg/mL
MIC (Enterococcus faecalis): 0.5 µg/mL (≈ 0.345 µM)
MIC (Staphylococcus aureus [30]): 0.25 µg/mL
MIC (Enterococcus faecium): > 88.3 µM
MIC [31]: 0.5 µg/mL (≈ 0.345 µM)

Structure (SMILES): CCCCCCCCCCCCCCCc1nnc(S)n1/N=C\c1cc(OC)c(OC)c(OC)c1
MIC (Escherichia coli [32]): 24.7 µg/mL (≈ 48.9 µM)
MIC (Pseudomonas aeruginosa [33]): 12.3 µg/mL (≈ 24.4 µM)
MIC (Bacillus subtilis [16]): 24.7 µg/mL (≈ 48.9 µM)

The next lines start with results.

MIC (Staphylococcus aureus [1]): 7.23 µg/mL (≈ 10.6 µM)
Structure (SMILES): O=c1cc(OCCn2cc(Cn3cc(Cl)c(=O)n(Cc4cn(CCOc5cc(=O)oc6ccccc56)nn4)c3=O)nn2)c2ccccc2o1
diameter of the inhibition zone (DIZ) (Staphylococcus aureus [2]): 26 mm

MIC (Candida albicans): 125 µM (≈ 62.2 µg/mL)
MIC (Aspergillus niger): 125 µM (≈ 62.2 µg/mL)
Structure (SMILES): Cc1ccc(NC(=O)Cn2cc(COc3ccc(C(=O)/C=C/c4ccc([N+](=O)[O-])cc4)cc3)nn2)cc1

MIC (Pseudomonas aeruginosa [19]): 25 µg/mL (≈ 55.8 µM)
MIC (Bacillus subtilis [20]): 12.5 µg/mL (≈ 27.9 µM)
MIC (Proteus mirabilis): 12.5 µg/mL (≈ 27.9 µM)
MIC (Staphylococcus aureus [21]): 3.12 µg/mL (≈ 6.98 µM)
MIC (Bacillus cereus): 3.12 µg/mL (≈ 6.98 µM)
MIC (Escherichia coli [22]): 6.25 µg/mL (≈ 14 µM)
MIC (Proteus vulgaris [23]): 12.5 µg/mL (≈ 27.9 µM)
Structure (SMILES): Nn1c(NCCCNc2ccnc3cc(Cl)ccc23)nn(CN2CCNCC2)c1=S

MIC (Micrococcus luteus [11]): 1.56 µg/mL
MIC (Bacillus subtilis [16]): 1.56 µg/mL (≈ 4.69 µM)
MIC (Proteus vulgaris [18]): 1.56 µg/mL (≈ 4.69 µM)
Structure (SMILES): COc1ccc(-c2cc(-c3nnn(-c4ccccc4)c3C)no2)cc1

MIC (Pseudomonas aeruginosa [19]): 50 µg/mL (≈ 119 µM)
MIC (Bacillus subtilis [20]): 12.5 µg/mL (≈ 29.6 µM)
MIC (Proteus mirabilis): 12.5 µg/mL (≈ 29.6 µM)
MIC (Staphylococcus aureus [21]): 6.25 µg/mL (≈ 14.8 µM)
MIC (Bacillus cereus): 3.12 µg/mL (≈ 7.41 µM)
MIC (Escherichia coli [22]): 3.12 µg/mL (≈ 7.41 µM)
MIC (Proteus vulgaris [23]): 12.5 µg/mL (≈ 29.6 µM)
Structure (SMILES): NC(=O)NCn1nc(NCCCNc2ccnc3cc(Cl)ccc23)n(N)c1=S
